Data as given in patent US10100282B2, “Differentiation of pluripotent cells” (FUJIFILM Cellular Dynamics, Inc., priority 2009, dated 2018).

How the values were obtained:
ROCK = conditions: cited from earlier work
hESCs and iPSCs = experiment: EB formation from single cell suspensions using ROCK inhibitors/PVA; assay type: cell-based, human; conditions: 18-24 hrs
Experimental: hESCs and iPSCs adapted to feeder free growth on matrigel maintained using mTESR were preconditioned for three days in the presence of mTesR-GF containing 0.1 ng/ml TGF-β and 20 ng/ml FGF-2. To initiate differentiation from single cells the, the cultures were treated with TrypLE™ (Invitrogen) for 6 minutes and the cells suspension was collected in (1) plain EB basal media, (2) EB basal media containing PVA, (3) EB basal media containing 0.5% PVA and 1 μM H1152 or 10 μM Y27632 ROCK inhibitor, or (4) EB basal media containing only 1 uM H1152 ROCK inhibitor. The cells were collected and washed once and plated in the respective media formulations on a low attachment plate at 37 C. The EB formation status was checked at 18-24 hrs later under a phase contrast microscope.

hESCs = experiment: Cytokine matrix: serum-free EB hematopoietic differentiation, surface markers by flow cytometry; assay type: cell-based, human; conditions: for role during EB differentiation: serum free hematopoietic differentiation, days 8, 12, 17
Experimental: Cells were collected from each well/condition and washed once with media. The cell pellet was digested using TrypLE™ or 0.5% trypsin for 5-10 minutes in a 37° C. incubator followed by washes with media and passage through a 70-μm cell strainer. […] Non-viable cells were excluded with 7-aminoactinomycin D (7-AAD, BD Biosciences). Live cell analysis was performed on a FACSCalibur™ or Accuri flow cytometer and Cell Quest software. hESCs adapted to feeder free growth on matrigel maintained using mTESR were preconditioned for three days in the presence of X-vivo-15 containing 0.1 ng/ml TGF-β and 20 ng/ml FGF-2. Cells were harvested using TrypLE for 6 minutes at 37 C. TrypLE™ was neutralized using EB basal media containing 1 μM ROCK inhibitor (H-1152), Soybean trypsin inhibitor (0.25 mg/ml). The cells were washed once in EB basal media containing 1 μM ROCK inhibitor and soybean trypsin inhibitor (0.25 mg/ml). The cells were plated in low attachment plates in EB basal media containing 1 μM ROCK inhibitor and soybean trypsin inhibitor (0.25 mg/ml). The media was changed the next day to EB basal media containing different cytokine formulations. […] The cytokine combinations used are listed below in Table 3. The EB cultures were half fed with fresh differentiation media every two days. The EB cultures were harvested on day 8, 12 and 17 of differentiation. The EB cultures were harvested by spinning down all the cells and digesting the EBs with TrypLE™ or 0.5% trypsin. The phenotype of the progenitor cell types was analyzed by flow cytometry and the cells were plated in methylcellulose media for CFU assays. “FLT3” refers to the Flt3 ligand below.

pluripotent cells = experiment: Hematopoietic differentiation in defined cell culture media with single growth factors; assay type: cell-based; conditions: factor alone in a cell culture media
[1] = ROCK inhibitor present (1 μM H1152 or 10 μM Y27632), 0.5% PVA present
[2] = ROCK inhibitor present, PVA absent

Cc1cncc2cccc(S(=O)(=O)N3CCCNCC3C)c12 (stereo in doubt) [H-1152, (S)-(+)-2-Methyl-1-[(4-methyl-5-isoquinolinyl)sulfonyl]homopiperazine]
potency relative to HA-100 (ROCK): approximately ten-fold | EB status (hESCs and iPSCs; [1]): Formed | EB status (hESCs and iPSCs; [2]): Formed

C[C@@H](N)[C@H]1CC[C@H](C(=O)Nc2ccncc2)CC1 [Y-27632, (R)-(+)-trans-4-(1-Aminoethyl)-N-(4-Pyridyl)cyclohexanecarboxamide]
EB status (hESCs and iPSCs; [1]): Formed | EB status (hESCs and iPSCs; [2]): Formed

BMP4: Bone morphogenetic protein-4
CD31 expressing cells (hESCs; DAY 8, factor ABSENT): 0.2% | CD34 expressing cells (hESCs; DAY 8, factor ABSENT): 0.5% | CD43 expressing cells (hESCs; DAY 8, factor ABSENT): 0.1% | CD45 expressing cells (hESCs; DAY 8, factor ABSENT): 0.2% | FLK-1 expressing cells (hESCs; DAY 8, factor ABSENT): 1.4% | CD31 expressing cells (hESCs; DAY 8, factor PRESENT): 1.3% | CD34 expressing cells (hESCs; DAY 8, factor PRESENT): 1.7% | CD43 expressing cells (hESCs; DAY 8, factor PRESENT): 1.6% | CD45 expressing cells (hESCs; DAY 8, factor PRESENT): 0.2% | FLK-1 expressing cells (hESCs; DAY 8, factor PRESENT): 2.4% | CD31 expressing cells (hESCs; DAY 12, factor ABSENT): 0.6% | CD34 expressing cells (hESCs; DAY 12, factor ABSENT): 1.3% | CD43 expressing cells (hESCs; DAY 12, factor ABSENT): 0.3% | CD45 expressing cells (hESCs; DAY 12, factor ABSENT): 0.1% | FLK-1 expressing cells (hESCs; DAY 12, factor ABSENT): 0.2% | CD31 expressing cells (hESCs; DAY 12, factor PRESENT): 3.2% | CD34 expressing cells (hESCs; DAY 12, factor PRESENT): 2.9% | CD43 expressing cells (hESCs; DAY 12, factor PRESENT): 4.0% | CD45 expressing cells (hESCs; DAY 12, factor PRESENT): 3.7% | FLK-1 expressing cells (hESCs; DAY 12, factor PRESENT): 0.7% | CD31 expressing cells (hESCs; DAY 17, factor ABSENT): 1.0% | CD34 expressing cells (hESCs; DAY 17, factor ABSENT): 2.0% | CD43 expressing cells (hESCs; DAY 17, factor ABSENT): 0.7% | CD45 expressing cells (hESCs; DAY 17, factor ABSENT): 0.3% | FLK-1 expressing cells (hESCs; DAY 17, factor ABSENT): 0.8% | CD31 expressing cells (hESCs; DAY 17, factor PRESENT): 11.9% | CD34 expressing cells (hESCs; DAY 17, factor PRESENT): 2.9% | CD43 expressing cells (hESCs; DAY 17, factor PRESENT): 12.8% | CD45 expressing cells (hESCs; DAY 17, factor PRESENT): 12.8% | FLK-1 expressing cells (hESCs; DAY 17, factor PRESENT): 2.7% | role during EB differentiation (hESCs): significant role at all time points | promotion of hematopoietic differentiation (pluripotent cells): did not promote hematopoietic differentiation

VEGF
CD31 expressing cells (hESCs; DAY 8, factor ABSENT): 0.4% | CD34 expressing cells (hESCs; DAY 8, factor ABSENT): 0.7% | CD43 expressing cells (hESCs; DAY 8, factor ABSENT): 0.1% | CD45 expressing cells (hESCs; DAY 8, factor ABSENT): 0.1% | FLK-1 expressing cells (hESCs; DAY 8, factor ABSENT): 2.0% | CD31 expressing cells (hESCs; DAY 8, factor PRESENT): 1.1% | CD34 expressing cells (hESCs; DAY 8, factor PRESENT): 1.5% | CD43 expressing cells (hESCs; DAY 8, factor PRESENT): 1.6% | CD45 expressing cells (hESCs; DAY 8, factor PRESENT): 0.2% | FLK-1 expressing cells (hESCs; DAY 8, factor PRESENT): 1.8% | CD31 expressing cells (hESCs; DAY 12, factor ABSENT): 0.6% | CD34 expressing cells (hESCs; DAY 12, factor ABSENT): 1.3% | CD43 expressing cells (hESCs; DAY 12, factor ABSENT): 0.2% | CD45 expressing cells (hESCs; DAY 12, factor ABSENT): 0.2% | FLK-1 expressing cells (hESCs; DAY 12, factor ABSENT): 0.3% | CD31 expressing cells (hESCs; DAY 12, factor PRESENT): 3.2% | CD34 expressing cells (hESCs; DAY 12, factor PRESENT): 2.9% | CD43 expressing cells (hESCs; DAY 12, factor PRESENT): 4.0% | CD45 expressing cells (hESCs; DAY 12, factor PRESENT): 3.6% | FLK-1 expressing cells (hESCs; DAY 12, factor PRESENT): 0.6% | CD31 expressing cells (hESCs; DAY 17, factor ABSENT): 1.0% | CD34 expressing cells (hESCs; DAY 17, factor ABSENT): 2.0% | CD43 expressing cells (hESCs; DAY 17, factor ABSENT): 0.9% | CD45 expressing cells (hESCs; DAY 17, factor ABSENT): 0.4% | FLK-1 expressing cells (hESCs; DAY 17, factor ABSENT): 1.4% | CD31 expressing cells (hESCs; DAY 17, factor PRESENT): 11.8% | CD34 expressing cells (hESCs; DAY 17, factor PRESENT): 2.8% | CD43 expressing cells (hESCs; DAY 17, factor PRESENT): 12.6% | CD45 expressing cells (hESCs; DAY 17, factor PRESENT): 12.7% | FLK-1 expressing cells (hESCs; DAY 17, factor PRESENT): 2.3% | role during EB differentiation (hESCs): significant role at all time points | promotion of hematopoietic differentiation (pluripotent cells): did not promote hematopoietic differentiation

B1: FLT-3: Flt3 ligand, the endogenous ligand for FLT3 (protein, UniProt P49771 27-235, looked up)
Fms-related tyrosine kinase 3 …: TQDCSFQHSPISSDFAVKIRELSDYLLQDYPVTVASNLQDEELCGGLWRLVLAQRWMERLKTVAGSKMQGLLERVNTEIHFVTKCAFQPPPSCLRFVQTNISRLLQETSEQLVALKPWITRQNFSRCLELQCQPDSSTLPPPWSPRPLEATAPTAPQPPLLLLLLLPVGLLLLAAAWCLHWQRTRRRTPRPGEQVPPVPSPQDLLLVEH
CD31 expressing cells (hESCs; DAY 8, factor ABSENT): 0.5% | CD34 expressing cells (hESCs; DAY 8, factor ABSENT): 0.9% | CD43 expressing cells (hESCs; DAY 8, factor ABSENT): 0.3% | CD45 expressing cells (hESCs; DAY 8, factor ABSENT): 0.2% | FLK-1 expressing cells (hESCs; DAY 8, factor ABSENT): 1.6% | CD31 expressing cells (hESCs; DAY 8, factor PRESENT): 1.0% | CD34 expressing cells (hESCs; DAY 8, factor PRESENT): 1.4% | CD43 expressing cells (hESCs; DAY 8, factor PRESENT): 1.4% | CD45 expressing cells (hESCs; DAY 8, factor PRESENT): 0.2% | FLK-1 expressing cells (hESCs; DAY 8, factor PRESENT): 2.2% | CD31 expressing cells (hESCs; DAY 12, factor ABSENT): 1.5% | CD34 expressing cells (hESCs; DAY 12, factor ABSENT): 1.7% | CD43 expressing cells (hESCs; DAY 12, factor ABSENT): 1.4% | CD45 expressing cells (hESCs; DAY 12, factor ABSENT): 1.2% | FLK-1 expressing cells (hESCs; DAY 12, factor ABSENT): 0.5% | CD31 expressing cells (hESCs; DAY 12, factor PRESENT): 2.4% | CD34 expressing cells (hESCs; DAY 12, factor PRESENT): 2.6% | CD43 expressing cells (hESCs; DAY 12, factor PRESENT): 3.0% | CD45 expressing cells (hESCs; DAY 12, factor PRESENT): 2.7% | FLK-1 expressing cells (hESCs; DAY 12, factor PRESENT): 0.5% | CD31 expressing cells (hESCs; DAY 17, factor ABSENT): 1.4% | CD34 expressing cells (hESCs; DAY 17, factor ABSENT): 2.2% | CD43 expressing cells (hESCs; DAY 17, factor ABSENT): 1.1% | CD45 expressing cells (hESCs; DAY 17, factor ABSENT): 0.9% | FLK-1 expressing cells (hESCs; DAY 17, factor ABSENT): 1.3% | CD31 expressing cells (hESCs; DAY 17, factor PRESENT): 11.5% | CD34 expressing cells (hESCs; DAY 17, factor PRESENT): 2.6% | CD43 expressing cells (hESCs; DAY 17, factor PRESENT): 12.4% | CD45 expressing cells (hESCs; DAY 17, factor PRESENT): 12.3% | FLK-1 expressing cells (hESCs; DAY 17, factor PRESENT): 2.4%
